Measurements reported in US20250108048A1, “STING AGONIST COMPOUNDS AND CONJUGATES” (SUTRO BIOPHARMA, INC., priority 2023, published 2025).

Tests used:
Assay type in all cases: cell-based
[1] = target: hSTING H232 (Homo sapiens, UniProt Q86WV6); test: THP1-Dual KI-hSTING-H232 reporter assay (IRF pathway, secreted Lucia luciferase); set-up: host or cells: THP1-Dual KI-hSTING-H232 (from THP1-Dual KO-STING); conditions: THP1-Dual KI-hSTING-H232 cells, 24 hours; read-out: Reporter assay EC50 (nM) THP-1-H232
Chain of hSTING H232 (Q86WV6 whole entry): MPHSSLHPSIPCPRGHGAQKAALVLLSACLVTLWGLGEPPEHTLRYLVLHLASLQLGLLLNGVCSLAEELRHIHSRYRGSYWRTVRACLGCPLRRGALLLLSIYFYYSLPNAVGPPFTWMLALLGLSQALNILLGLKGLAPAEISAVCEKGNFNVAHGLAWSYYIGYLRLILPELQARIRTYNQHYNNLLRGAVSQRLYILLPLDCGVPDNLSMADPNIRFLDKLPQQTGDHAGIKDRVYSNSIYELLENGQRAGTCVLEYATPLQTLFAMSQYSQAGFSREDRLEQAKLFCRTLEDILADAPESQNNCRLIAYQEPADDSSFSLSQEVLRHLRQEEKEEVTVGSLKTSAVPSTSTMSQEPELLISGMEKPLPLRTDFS
Experimental: (§1) The activities of the STING agonists to activate human or mouse STING pathways were evaluated in THP-1-Dual™, THP1-Dual™ KI-hSTING-R232, THP1-Dual™ KI-hSTING-H232 Cells and THP1-Dual™ KI-mSTING Cells. THP-1-Dual™ cells contains hSTING-HAQ haplotype and can be used to evaluate the activity of STING agonists by monitoring the activation of NF-κB pathway and the […] (IFN regulatory factor) pathways. THP1-Dual™ KO-STING cells were generated from THP1-Dual™ cells by stable knockout of the endogenous HAQ STING gene. THP1-Dual™ KI-hSTING-R232 cells, THP1-Dual™ KI-hSTING-H232 cells and THP1-Dual™ KI-mSTING cells were generated by transfecting THP1-Dual™ KO-STING cells with hSTING-R232 or hSTING-H232 or mSTING. Stimulating these reporter cells with a STING agonist activates TRF pathway and induces the production of a secreted Lucia luciferase in the cell culture medium, which can be determined using QUANTI-Luc™ reagent.
(§2) THP-1-Dual™, THP1-Dual™ KI-hSTING-R232, THP1-Dual™ KI-hSTING-H232 and THP1-Dual™ KI-mSTING reporter cells were purchased from Invivogen and maintained in manufacture recommended culture medium with required supplemental antibiotics. On the day of assay, the cells were harvested with Accutase and counted by the Vi-CELL Cell Viability Analyzers. Cells were resuspended in HEK blue detection medium and a total of 10000 cells were seeded in each well of a 384-well flat bottom plate. […] After incubation at 37° C. in a CO2 incubator for 24 hours, 20 μl of cell culture medium per well was transferred into a 384-well white (opaque) plate. 50 μl of QUANTI-Luc™ assay solution was then added to each well and the plate was immediately transferred to an ENVISION® plate reader to measure luminescence (Perkin-Elmer). Relative luminescence readings were converted to fold change of signal using untreated cells as controls. Data was fitted with non-linear regression analysis, using log (agonist) vs. response, variable slope, 4-parameter fit equation using GraphPad Prism. Data was expressed as fold change in signal vs. dose of STING agonist in nM with error bars indicating the Standard Deviation (SD) of the quadruplicates. There result was reported in Table 2 as EC50 (the midpoint of the curve, or concentration at which […] of the maximum effect was observed).

[2] = target: T1, hSTING-HAQ haplotype (Homo sapiens, UniProt Q86WV6, G230A/H232R/R293Q/R71H); test: THP-1-Dual reporter assay (endogenous hSTING-HAQ); conditions: THP-1-Dual cells (hSTING-HAQ), 24 hours
T1 construct: host or cells: THP-1-Dual
T1 sequence (Q86WV6 whole entry R71H/G230A/H232R/R293Q): as the sequence (Q86WV6 whole entry) above, with R71H, G230A, H232R, R293Q counted along it
Experimental: as §1, §2

[3] = target: T2, hSTING-R232 (Homo sapiens, UniProt Q86WV6, H232R); test: THP1-Dual KI-hSTING-R232 reporter assay (IRF pathway, secreted Lucia luciferase); conditions: THP1-Dual KI-hSTING-R232 cells, 24 hours; read-out: Reporter assay EC50 (nM) THP-1-R232
T2 construct: host or cells: THP1-Dual KI-hSTING-R232 (from THP1-Dual KO-STING)
T2 sequence (Q86WV6 whole entry H232R): as the sequence (Q86WV6 whole entry) above, with H232R counted along it
Experimental: as §1, §2

[4] = target: T3, mSTING (Mus musculus, UniProt Q3TBT3); test: THP1-Dual KI-mSTING reporter assay; set-up: host or cells: THP1-Dual KI-mSTING (from THP1-Dual KO-STING); conditions: THP1-Dual KI-mSTING cells, 24 hours; read-out: Reporter assay EC50 (nM) THP-1 mSTING
T3 sequence (Q3TBT3 1-378): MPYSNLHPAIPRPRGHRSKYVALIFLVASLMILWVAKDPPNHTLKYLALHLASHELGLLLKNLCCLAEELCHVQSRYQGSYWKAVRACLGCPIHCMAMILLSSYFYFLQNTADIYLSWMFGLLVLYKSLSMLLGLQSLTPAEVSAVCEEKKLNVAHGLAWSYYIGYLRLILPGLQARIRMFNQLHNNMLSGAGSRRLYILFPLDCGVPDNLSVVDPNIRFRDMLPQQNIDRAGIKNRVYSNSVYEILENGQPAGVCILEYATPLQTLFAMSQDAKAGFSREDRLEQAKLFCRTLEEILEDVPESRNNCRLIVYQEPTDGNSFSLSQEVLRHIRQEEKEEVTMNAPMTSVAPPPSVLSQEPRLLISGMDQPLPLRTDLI
Experimental: as §1
THP-1-Dual™, THP1-Dual™ KI-hSTING-R232, THP1-Dual™ KI-hSTING-H232 and THP1-Dual™ KI-mSTING reporter cells were purchased from Invivogen and maintained in manufacture recommended culture medium with required supplemental antibiotics. On the day of assay, the cells were harvested with Accutase and counted by the Vi-CELL Cell Viability Analyzers. Cells were resuspended in HEK blue detection medium and a total of 10000 cells were seeded in each well of a 384-well flat bottom plate. Serial dilutions of STING agonists free drugs (1:3 serial dilution starting from 5 uM) was added into treatment wells. After incubation at 37° C. in a CO2 incubator for 24 hours, 20 μl of cell culture medium per well was transferred into a 384-well white (opaque) plate. 50 μl of QUANTI-Luc™ assay solution was then added to each well and the plate was immediately transferred to an ENVISION® plate reader to measure luminescence (Perkin-Elmer). Relative luminescence readings were converted to fold change of signal using untreated cells as controls. Data was fitted with non-linear regression analysis, using log (agonist) vs. response, variable slope, 4-parameter fit equation using GraphPad Prism. Data was expressed as fold change in signal vs. dose of STING agonist in nM with error bars indicating the Standard Deviation (SD) of the quadruplicates. There result was reported in Table 2 as EC50 (the midpoint of the curve, or concentration at which […] of the maximum effect was observed).

SMILES | EC50 [1] [nM] | EC50 [2] [nM] | EC50 [3] [nM] | EC50 [4] [nM]
CCn1nc(C)cc1C(=O)Nc1nc2cc(C(N)=O)cc(OC)c2n1C/C=C/Cn1c(NC(=O)Cc2cnc(C)o2)nc2cc(C(N)=O)cc(OCCCN3CC4(CNCCO4)C3)c21 [Compound 7] | > 150 | > 150 | > 150 | > 150
CCn1nc(C)cc1C(=O)Nc1nc2cc(C(N)=O)cc(OC)c2n1C/C=C/Cn1c(NC(=O)Cc2cc(C)n(C)n2)nc2cc(C(N)=O)cc(OCCCN3CC4(CNCCO4)C3)c21 [Compound 9] | > 150 | > 150 | > 150 | > 150
CCc1nc(C)oc1C(=O)Nc1nc2cc(C(N)=O)cc(OCCCN3CC4(CNCCO4)C3)c2n1C/C=C/Cn1c(NC(=O)c2cc(C)nn2CC)nc2cc(C(N)=O)cc(OC)c21 [Compound 10] | ≤ 50 | ≤ 50 | ≤ 50 | ≤ 50
CCn1nc(C)cc1C(=O)Nc1nc2cc(C(N)=O)cc(OC)c2n1C/C=C/Cn1c(NC(=O)c2oc(C)nc2C)nc2cc(C(N)=O)cc(OCCCN3CC4(CNCCO4)C3)c21 [Compound 11] | ≤ 50 | > 150 | ≤ 50 | ≤ 50
CCn1nc(C)cc1C(=O)Nc1nc2cc(C(N)=O)cc(OC)c2n1C/C=C/Cn1c(NC(=O)C23CCC(C)(CC2)CC3)nc2cc(C(N)=O)cc(OCCCN3CC4(CNCCO4)C3)c21 [Compound 12] | > 150 | > 150 | > 150 | > 150
CCn1nc(C)cc1C(=O)Nc1nc2cc(C(N)=O)cc(OC)c2n1C/C=C/Cn1c(NC(=O)c2cc(C)nn2C)nc2cc(C(N)=O)cc(OCCCN3CC4(CNCCO4)C3)c21 [Compound 13] | ≤ 50 | ≤ 50 | ≤ 50 | ≤ 50
CCn1nc(C)cc1C(=O)Nc1nc2cc(C(N)=O)cc(OC)c2n1C/C=C/Cn1c(NC(=O)c2ccnn2CC)nc2cc(C(N)=O)cc(OCCCN3CC4(CNCCO4)C3)c21 [Compound 14] | ≤ 50 | ≤ 50 | ≤ 50 | ≤ 50
CCc1cc(C(=O)Nc2nc3cc(C(N)=O)cc(OCCCN4CC5(CNCCO5)C4)c3n2C/C=C/Cn2c(NC(=O)c3cc(C)nn3CC)nc3cc(C(N)=O)cc(OC)c32)n(C)n1 [Compound 15] | > 150 | > 150 | > 150 | > 150
CCn1nc(C)cc1C(=O)Nc1nc2cc(C(N)=O)cc(OC)c2n1C/C=C/Cn1c(NC(=O)c2cc(C)nn2CC)nc2cc(C(N)=O)cc(OCCCN3CC4(C3)CN(C(=O)[C@@H](N)CC(C)C)CCO4)c21 [Compound 16] | ≤ 50 | ≤ 50 | ≤ 50 | ≤ 50
CCc1nc(C)oc1C(=O)Nc1nc2cc(C(N)=O)cc(OCCCN3CC4(C3)CN(C(=O)CNC)CCO4)c2n1C/C=C/Cn1c(NC(=O)c2cc(C)nn2CC)nc2cc(C(N)=O)cc(OC)c21 [Compound 18] | > 150 | 50 to 150 | 50 to 150 | > 150
CCc1nc(C)oc1C(=O)Nc1nc2cc(C(N)=O)cc(OCCCN3CC4(C3)CN(C(=O)[C@H](CC(C)C)NC)CCO4)c2n1C/C=C/Cn1c(NC(=O)c2cc(C)nn2CC)nc2cc(C(N)=O)cc(OC)c21 [Compound 19] | 50 to 150 | 50 to 150 | ≤ 50 | ≤ 50

Next, values leading:

EC50 [1] [nM] | EC50 [2] [nM] | EC50 [3] [nM] | EC50 [4] [nM] | SMILES
50 to 150 | 50 to 150 | ≤ 50 | ≤ 50 | CCc1nc(C)oc1C(=O)Nc1nc2cc(C(N)=O)cc(OCCCN3CC4(C3)CN(C(=O)[C@H](N)CC(C)C)CCO4)c2n1C/C=C/Cn1c(NC(=O)c2cc(C)nn2CC)nc2cc(C(N)=O)cc(OC)c21 [Compound 20]
≤ 50 | 50 to 150 | ≤ 50 | 50 to 150 | CCc1nc(C)oc1C(=O)Nc1nc2cc(C(N)=O)cc(OCCCN3CC4(CNCCO4)C3)c2n1C/C=C/Cn1c(NC(=O)c2cc(C)nn2CC)nc2cc(C(N)=O)cnc21 [Compound 23]
50 to 150 | > 150 | ≤ 50 | > 150 | CCn1nc(C)cc1C(=O)Nc1nc2cc(C(N)=O)cc3c2n1C/C=C/Cn1c(NC(=O)c2cc(C)nn2CC)nc2cc(C(N)=O)cc(c21)OCC1(CNC1)CO3 [Compound 24, (3E)-7,25-bis[(2-ethyl-5-methyl-pyrazole-3-carbonyl)amino]spiro[14,18-dioxa-1,6,8,24-tetrazapentacyclo[17.6.1.16,9.023,26.013,27]heptacosa-3,7,9,11,13 (27), 19 (26), 20,22,24-nonaene-16,3′-azetidine]-11,21-dicarboxamide; 2,2,2-trifluoroacetic acid]
≤ 50 | > 150 | ≤ 50 | ≤ 50 | CCc1nc(C)oc1C(=O)Nc1nc2cc(C(N)=O)cc3c2n1C/C=C/Cn1c(NC(=O)c2oc(C)nc2CC)nc2cc(C(N)=O)cc(c21)OCC1(CNC1)CO3 [Compound 25]
≤ 50 | > 150 | ≤ 50 | 50 to 150 | CCc1nc(C)oc1C(=O)Nc1nc2cc(C(N)=O)cc3c2n1C/C=C/Cn1c(NC(=O)c2cc(C)nn2CC)nc2cc(C(N)=O)cc(c21)OCC1(CNC1)CO3 [Compound 26, (3E)-7-[(4-ethyl-2-methyl-oxazole-5-carbonyl)amino]-25-[(2-ethyl-5-methyl-pyrazole-3-carbonyl)amino]spiro[14,18-dioxa-1,6,8,24-tetrazapentacyclo[17.6.1.16,9.023,26.013,27]heptacosa-3,7,9,11,13 (27), 19 (26), 20,22,24-nonaene-16,3′-azetidine]-11,21-dicarboxamide]
